Test results taken from patent publication US7048907B2, “Synthesis, compositions and methods for the measurement of the concentration of stable-isotope labeled compounds in life forms and life form excretory products” (BioPhysics Assay Laboratory, Inc., priority 2001, dated 2006).
Where two headings read alike, the source gives them in different places.

Legend:
[1] = in vivo; cited from earlier work
[2] = demonstrated by properties of the marketed pharmaceutical product; cited from earlier work
[3] = Assay of chelate on carboxymethyl (CM) Sephadex column (chelate formation, charge); format: physicochemical; settings: for % of total: DOTA chelates; for umol Gd: atomic absorption
Protocol: Preparation of carboxymethyl sephadex column. To two 10 ml plastic pipets cut off at the 3 ml mark and plugged with glass wool at the bottom add enough slurry to form a 2 ml volume of the CM sephadex. Wash the packed resin with 6 ml of 1 M Tris buffer pH 7.5, and 6 ml of 0.01M Tris buffer pH 7.5. […] Collect the eluants of fractions as follows. Fraction 1.3 ml of 0.01 M Tris buffer pH 7.5 and allow to drain into column. Fraction 2.1 ml of sample (gadolinium-DTPA or gadolinium chloride) and allow to drain into column. Apply 3 ml of 0.01 M Tris buffer pH 7.5 and allow to drain into column. Fraction 3.3 ml of 0.01M Tris buffer pH 7.5 and allow to drain into column. Dry all fractions at 70° C. for 76 hours, dissolve in 1 ml of 1 mM HCl and assay by atomic absorption.
(§1) Preparation of carboxymethyl Sephadex column. To two 10 ml plastic pipets which had been cut off at the 3 ml mark and plugged with glass wool at the bottom, enough slurry was added to form a 2 ml volume of the CM Sephadex. The packed resin was wash with 6 ml of 1 M Tris buffer pH 7.5, and 6 ml of 0.01M Tris buffer pH 7.5. […] Fractions were applied as follows. Fraction 1. Three ml of 0.01 M Tris buffer pH 7.5 and allow to drain into column. Fraction 2. One ml of sample (samarium-DTPA or samarium chloride) and allow to drain into column. Apply 3 ml of 0.01 M Tris buffer pH 7.5 and allow to drain into column. Fraction 3. Three ml of 0.01M Tris buffer pH 7.5 and allow to drain into column. Collect the eluant of fractions 1 through 3. Fraction 4. Column and contents.
as §1, with “were” for “had been”, “washed” for “wash”, “(lanthanum-DTPA” for “(samarium-DTPA”, “lanthanum” for “samarium”
as §1, with “were” for “had been”, “washed” for “wash”, “(Europium-DTPA” for “(samarium-DTPA”, “Europium” for “samarium”
Preparation of carboxymethyl sephadex column. To a 10 ml plastic pipet cut off at the 3 ml mark and plugged with glass wool at the bottom, add enough slurry to form a 2 ml volume of the CM sephadex. Wash the packed resin with 6 ml of 1 M Tris buffer pH 7.5, and 6 ml of 0.01M Tris buffer pH 7.5. […] Apply fractions as follows. Fraction 1. One ml of sample A and allow to drain into column.

[4] = male, New Zealand White, rabbit, in vivo
Protocol: One New Zealand White male rabbit (m=2 kg) was sedated with intramuscular ketanine (35 mg/kg) and xylazine (5 mg/kg). Both the right and left ear veins were catheterized. One line was used to inject Iohexol (Omnipaque®, Nycomed, Inc., Princeton, N.J.). The injected dose (ID) was 90 mg of iodine. […] For each blood sample, 100 μl of serum was placed in a clean sample vial. A metallic monitor was than added to each vial to account for potential neutron flux density variations during neutron activation analysis. Neutron activation was performed in a 2 megawatt reactor for 1 min and samples were counted within 30 minutes following activation. Counts were converted into disintegrations per minute and the measured iodine concentration for each sample was plotted as a function of time of sample withdrawal. The data was fit to a two compartment exponential model using the equation: Plasma concentration=Ae^−(at)+Be^−(bt). […] The GFR (ml/kg/min) was than calculated as follows: GFR=(ID/AUC)/m, where: ID=initial dose of iohexol, AUC=(A/a+B/b), and m=minutes.

[5] = Fraction 1: 1 ml sample diluted 1:10 then 3 ml 0.01M Tris pH 7.5 (eluate)
[6] = Fraction 2: further 3 ml 0.01M Tris pH 7.5

## O=C([O-])C(NCCNC(C(=O)[O-])c1ccccc1[O-])c1ccccc1[O-].[Fe+3] (stereo not drawn) [FE-EHPG]
[1]
  uptake into liver: 6 % of an administered dose

## O=C([O-])CN1CCN(CC(=O)[O-])CCN(CC(=O)O)CCN(CC(=O)[O-])CC1.[Gd+3] [Gd-DOTA, Gd-(1,4,7,10-tetraazacyclododecane-1,4,7,10-tetraacetic acid), reference compound]
[2]
  stability to autoclaving: stable to autoclaving
[3]
  % eluted from the CM-Sephadex column: 100%
[3]; [5]
  % of total: 100 % of total
  umol Gd: 0.1 µmol
[3]; [6]
  % of total: 0 % of total
  umol Gd: 0 µmol
[3]; room temperature, Tris pH 7.5
  time within which the chelate forms: ≤ 5 min

## CC(=O)N(CC(O)CO)c1c(I)c(C(=O)NCC(O)CO)c(I)c(C(=O)NCC(O)CO)c1I (stereo not drawn) [Iohexol]
[4]
  GFR: 4.8 mL/min/kg
[4]; 5 min
  serum concentration: 124.4 µg/mL
  serum iodine signal: 5166.1 dpm/ul
[4]; 10 min
  serum concentration: 109.4 µg/mL
  serum iodine signal: 4541.7 dpm/ul
[4]; 15 min
  serum concentration: 86.6 µg/mL
  serum iodine signal: 3595.7 dpm/ul
[4]; 20 min
  serum concentration: 88.85 µg/mL
  serum iodine signal: 3689.4 dpm/ul
[4]; 30 min
  serum concentration: 67.69 µg/mL
  serum iodine signal: 2810.5 dpm/ul
[4]; 45 min
  serum concentration: 47.02 µg/mL
  serum iodine signal: 1952.3 dpm/ul
[4]; 60 min
  serum concentration: 48.94 µg/mL
  serum iodine signal: 2032.3 dpm/ul
[4]; 96 min
  serum concentration: 31.74 µg/mL
  serum iodine signal: 1317.8 dpm/ul
[4]; 120 min
  serum concentration: 23.65 µg/mL
  serum iodine signal: 982.0 dpm/ul
